Data set [1] can be described thus: Resistance fold, ratio of EC50 for HIV1 harboring reverse transcriptase L100I mutant […] to EC50 for wild type HIV1 […]. Format: functional.
Data set [2] concerns Human immunodeficiency virus 2. In words: Anti-HIV activity against HIV2 ROD infected in human MT4 cells assessed as reduction in virus-induced cytopathic effect incubated for 5 days by MTT assay. Format: functional, organism-based. The note with it: Human immunodeficiency virus 2, ROD, MT4, 120 h.
The nature of data set [3]: Selectivity index, ratio of CC50 for cytotoxicity against human MT4 cells to EC50 of Anti-HIV activity against HIV-1 IIIB infected in human MT4. Format: toxicity, cell-based. The note with it: read-out: Selectivity Index.
Data set [4] can be described thus: Resistance fold, ratio of EC50 for HIV1 harboring reverse transcriptase K103N mutant […] to EC50 for wild type HIV1 […]. Format: functional.
Data set [5] has as its system Human immunodeficiency virus 1. The experiment in a line: Anti-HIV activity against HIV-1 IIIB infected in human MT4 cells assessed as reduction in virus-induced cytopathic effect incubated for 5 days by MTT assay. The format is functional, organism-based. Particulars: Human immunodeficiency virus 1, IIIB, MT4, 120 h.
Data set [6] is described as follows: Cytotoxicity against human MT4 cells assessed as reduction in cell viability incubated for 5 days by MTT assay. Format: cell-based. Particulars: human, MT4 cells; time 5 day.
Data set [7] is described as follows: Resistance fold, ratio of EC50 for HIV1 harboring reverse transcriptase Y181C mutant […] to EC50 for wild type HIV1 […]. The format is functional.
Data set [8] concerns Human immunodeficiency virus 1. The experiment in a line: Antiviral activity against HIV1 harboring reverse transcriptase E138K mutant infected in human MT4 cells assessed as protection against virus-induced cytopathic effect incubated for 5 days by MTT assay. Format: functional, organism-based. Particulars: Human immunodeficiency virus 1, MT4, 120 h.
Data set [9] in a line: Resistance fold, ratio of EC50 for HIV1 harboring reverse transcriptase E138K mutant […] to EC50 for wild type HIV1 […]. The format is functional.
The nature of data set [10]: Resistance fold, ratio of EC50 for HIV1 harboring reverse transcriptase K103N/Y181C double mutant […] to EC50 for wild type HIV1 […]. The format is functional.
The subject of data set [11] is Human immunodeficiency virus 1. The experiment in a line: Antiviral activity against HIV1 harboring reverse transcriptase L100I mutant infected in human MT4 cells assessed as protection against virus-induced cytopathic effect incubated for 5 days by MTT assay. Format: functional, organism-based. Particulars: Human immunodeficiency virus 1, MT4, 120 h.
Data set [12] deals with Human immunodeficiency virus 1. The experiment in a line: Antiviral activity against HIV1 harboring reverse transcriptase Y181C mutant infected in human MT4 cells assessed as protection against virus-induced cytopathic effect incubated for 5 days by MTT assay. Format: functional, organism-based. Particulars: Human immunodeficiency virus 1, MT4, 120 h.
Data set [13] concerns Human immunodeficiency virus 1. The experiment in a line: Antiviral activity against HIV1 harboring reverse transcriptase K103N mutant infected in human MT4 cells assessed as protection against virus-induced cytopathic effect incubated for 5 days by MTT assay. The format is functional, organism-based. The note with it: Human immunodeficiency virus 1, MT4, 120 h.
For data set [14], the system named is Human immunodeficiency virus 1. The experiment in a line: Antiviral activity against HIV1 harboring reverse transcriptase Y188L mutant infected in human MT4 cells assessed as protection against virus-induced cytopathic effect incubated for 5 days by MTT assay. Format: functional, organism-based. Particulars: Human immunodeficiency virus 1, MT4, 120 h.
In data set [15] the test system is Human immunodeficiency virus 1. The experiment in a line: Antiviral activity against HIV1 harboring reverse transcriptase K103N/Y181C double mutant infected in human MT4 cells assessed as protection against virus-induced cytopathic effect incubated for 5 days by MTT assay. Format: functional, organism-based. Particulars: Human immunodeficiency virus 1, MT4, 120 h.

A short description of data set [16]: Resistance fold, ratio of EC50 for HIV1 harboring reverse transcriptase Y188L mutant […] to EC50 for wild type HIV1 […]. Format: functional.
In data set [17] the target is Human immunodeficiency virus type 1 reverse transcriptase (Human immunodeficiency virus 1, UniProt Q72547). In words: Inhibition of wild type HIV1 reverse transcriptase using oligo(dT)16 as primer measured after 40 mins by picogreen-dye based spectrofluorimetric analysis.
Data set [18] relates to Human immunodeficiency virus 1. In words: Antiviral activity against HIV1 harboring reverse transcriptase F227L/V106A mutant infected in human MT4 cells assessed as protection against virus-induced cytopathic effect incubated for 5 days by MTT assay. Particulars: Human immunodeficiency virus 1, MT4, 120 h. The format is functional, organism-based.
The nature of data set [19]: Resistance fold, ratio of EC50 for HIV1 harboring reverse transcriptase F227L/V106A double mutant […] to EC50 for wild type HIV1 […]. Format: functional.

The results in this text go back to ChEMBL document CHEMBL5036347, “Design of the naphthyl-diarylpyrimidines as potent non-nucleoside reverse transcriptase inhibitors (NNRTIs) via structure-based extension into the entrance channel” (Eur J Med Chem, 2021).

Consider `CCC(CC)Nc1cc(Oc2c(OC)cc3cc(C#N)ccc3c2OC)nc(Nc2ccc(C#N)cc2)n1`, for which the “Ratio EC50” value in data set [1] turned out to be 46; in data set [4] it was 1; in data set [7], 10; in data set [9], 2; in [10], 555; in data set [16] it was 192. The “Ratio EC50” value in data set [19] is listed as >7862. Moreover, the EC50 in data set [2] was > 1000 µM; in data set [5], 0.13 µM; in data set [8], 0.27 µM; in [11], 5.87 µM; in data set [12], 1.33 µM; in data set [13], 0.11 µM. Besides, the EC50 in data set [14] was 24.4 µM; in data set [15] it was 70.5 µM; in data set [18], > 1000 µM. Besides, the selectivity ratio in [3] is > 1930. The CC50 at 120 h in [6] was > 125 µM. Also, the IC50 in data set [17] was determined as 0.6 µM.
Regarding `CCCC(C)Nc1cc(Oc2c(OC)cc3cc(C#N)ccc3c2OC)nc(Nc2ccc(C#N)cc2)n1` (stereo unspecified), the “Ratio EC50” value in data set [1] is recorded as 28; in data set [4], 1; in data set [7], 8; in data set [9] it was 3; in [10], 112; in data set [16] it was 139. For the same compound, in data set [19], the “Ratio EC50” value is >12771. Also, the EC50 in [2] was > 1000 µM; in data set [5], 0.078 µM; in [8] it was 0.25 µM; in data set [11], 2.17 µM; in data set [12], 0.66 µM; in data set [13], 0.064 µM. The EC50 in data set [14] is 10.9 µM; in data set [15], 8.77 µM; in data set [18], > 1000 µM. Further, the selectivity ratio in data set [3] is > 3140. For the same compound, the CC50 at 120 h in [6] is > 125 µM. Besides, in data set [17], the IC50 was 0.4 µM.
Turning to `CCC(C)Nc1cc(Oc2c(OC)cc3cc(C#N)ccc3c2OC)nc(Nc2ccc(C#N)cc2)n1` (stereo unspecified), the “Ratio EC50” value in data set [1] is 31; in [4] it was 9; in [7] it was 10; in [9], 3; in data set [10] it was 83; in data set [16] it was 89. The “Ratio EC50” value in data set [19] is listed as >22472. In addition, the EC50 in data set [2] is > 1000 µM; in data set [5], 0.045 µM; in data set [8], 0.12 µM; in [11] it was 1.38 µM; in data set [12], 0.43 µM; in [13], 0.42 µM. Besides, the EC50 in [14] is 3.97 µM; in data set [15] it was 3.69 µM; in data set [18], > 1000 µM. Besides, the selectivity ratio in data set [3] was > 5670. The CC50 at 120 h in data set [6] is > 125 µM. Moreover, the 50% inhibitory concentration (IC50) in [17] stood at 0.26 µM.
Regarding `CCCCCC(C)Nc1cc(Oc2c(OC)cc3cc(C#N)ccc3c2OC)nc(Nc2ccc(C#N)cc2)n1` (stereo unspecified), the “Ratio EC50” value in data set [1] is listed as 102; in data set [4], 1; in [7], 26; in data set [9], 1; in data set [10], >649; in [16] it was >650. The “Ratio EC50” value in data set [19] is listed as >649. Also, the EC50 in data set [2] is > 1000 µM; in data set [5] it was 1.54 µM; in data set [8], 2.22 µM; in data set [11], 157 µM; in data set [12], 40 µM; in [13], 1.33 µM. Also, the EC50 in [14], in [15] and in [18] was > 1000 µM in each case. The selectivity ratio in data set [3] is > 151. Also, the CC50 at 120 h in [6] was > 125 µM. The compound further showed an IC50 in data set [17] of 1.2 µM.
With `CCCC(CCC)Nc1cc(Oc2c(OC)cc3cc(C#N)ccc3c2OC)nc(Nc2ccc(C#N)cc2)n1`, the “Ratio EC50” value in data set [1] is on record as 181; in data set [4], 1; in data set [7], 37; in data set [9], 2; in [10] it was >1416; in data set [16], >1416. Besides, in data set [19], the “Ratio EC50” value was >1416. Also, the EC50 in data set [2] is > 1000 µM; in data set [5] it was 0.71 µM; in [8] it was 1.59 µM; in data set [11], 128 µM; in [12], 26.4 µM; in data set [13] it was 0.36 µM. For the same compound, the EC50 in [14], in data set [15] and in data set [18] was > 1000 µM throughout. In [3], the selectivity ratio was > 330. Besides, the CC50 at 120 h in [6] is > 125 µM. Besides, the IC50 in [17] came to 0.61 µM.
Turning to `COc1cc2cc(C#N)ccc2c(OC)c1Oc1cc(NC(C)(C)C)nc(Nc2ccc(C#N)cc2)n1`, the “Ratio EC50” value turned out to be 36 in data set [1]; 1 in [4]; 12 in [7]; 4 in [9]; 548 in data set [10]; 125 in data set [16]. In data set [19], the “Ratio EC50” value is >19231. The EC50 in [2] was > 1000 µM; in [5], 0.052 µM; in data set [8] it was 0.18 µM; in data set [11], 1.89 µM; in data set [12], 0.65 µM; in data set [13], 0.075 µM. The EC50 is 6.51 µM in [14], 28.5 µM in data set [15] and > 1000 µM in [18]. The selectivity ratio in data set [3] is > 4830. Moreover, the CC50 at 120 h in [6] was > 125 µM. The compound also returned an IC50 in [17] of 0.31 µM.
Take `COc1cc2cc(C#N)ccc2c(OC)c1Oc1cc(NCCCOC(C)C)nc(Nc2ccc(C#N)cc2)n1`: the “Ratio EC50” value was 29 in [1]; 3 in data set [4]; 13 in [7]; 1 in data set [9]; 48 in data set [10]; 58 in data set [16]. For the same compound, in [19], the “Ratio EC50” value was >23202. The EC50 in [2] is > 1000 µM; in data set [5] it was 0.043 µM; in [8], 0.057 µM; in [11], 1.23 µM; in data set [12], 0.55 µM; in data set [13], 0.033 µM. For the same compound, the EC50 is 2.51 µM in data set [14], 2.07 µM in data set [15] and > 1000 µM in [18]. For the same compound, the selectivity ratio in [3] is > 5380. In addition, the CC50 at 120 h in data set [6] is > 125 µM. Moreover, it took 0.32 µM to reach half-maximal inhibition in data set [17] (IC50).
On to `COc1cc2cc(C#N)ccc2c(OC)c1Oc1cc(NCC(C)C)nc(Nc2ccc(C#N)cc2)n1`, for which the “Ratio EC50” value in data set [1] is reported as 3646; in data set [4], 3; in data set [7], 1253; in data set [9] it was 4; in [10], >28736; in data set [16], 383. Further, the “Ratio EC50” value in data set [19] was >28736. The EC50 was > 1000 µM in data set [2]; 0.035 µM in data set [5]; 0.13 µM in data set [8]; 127 µM in [11]; 43.6 µM in data set [12]; 0.11 µM in [13]. Moreover, the EC50 in data set [14] is 13.3 µM; in data set [15] it was > 1000 µM; in [18], > 1000 µM. The selectivity ratio in data set [3] is > 7250. Moreover, the CC50 at 120 h in data set [6] was > 125 µM. The compound also showed an IC50 in data set [17] of 0.25 µM.
For the compound `COc1cc2cc(C#N)ccc2c(OC)c1Oc1cc(NCC(C)(C)C)nc(Nc2ccc(C#N)cc2)n1`, the “Ratio EC50” value in [1] is listed as 103; in data set [4], 2; in [7], 28; in [9] it was 4; in data set [10], >11723; in data set [16] it was 1313. Further, in data set [19], the “Ratio EC50” value is on record as >11723. Also, the EC50 in data set [2] was > 1000 µM; in [5], 0.085 µM; in [8] it was 0.31 µM; in data set [11] it was 8.79 µM; in data set [12] it was 2.38 µM; in [13] it was 0.14 µM. Also, the results for the EC50 in data set [14], in [15] and in data set [18] were 112 µM, 1000 µM and > 1000 µM, respectively. Moreover, in [3], the selectivity ratio was > 2880. Moreover, the CC50 at 120 h in [6] was > 125 µM. This compound returned an IC50 in data set [17] of 0.51 µM.
